# Experimental data: patent US11478440B2, “Combination of Elafibranor or derivatives thereof with an anti-NASH, anti-fibrotic or anti-cholestatic agent” (GENFIT, priority 2017, dated 2022)
# Tests used:
# [1] = up to 2-year carcinogenicity studies; cited from earlier work
# [2] = system: NASH; conditions: over 800 patients and healthy volunteers; cited from earlier work
# [3] = system: LPS-activated macrophages (THP-1); assay: TNFα secretion (HTRF) in LPS-activated THP-1 macrophages; type: cell-based, human; conditions: Elafibranor 1 μM alone; LPS 100 ng/ml 6 h
# Protocol: THP-1 monocytes (ECACC #88081201) were seeded at a density of 25550 cells per well in 384-well plate in RPMI1640 (Gibco, 21875) supplemented with 10% SVF and differentiated into macrophages using PMA (Phorbol 12-myristate 13-acetate, Sigma, P8139) at the final concentration of 100 ng/ml for 24 hours.
# For these experiments, a checkerboard matrix was generated. ELA and component stocks were serially diluted in DMSO in 6-points series in a column (ELA) and a 10-points series in a raw (component) of a 96-well plate for other compounds. Subsequently, the 6×10 combination matrix was generated by 1:1 mixing of all single agent concentrations.
# After 24 hrs with PMA, medium was removed, and replaced by serum free RPMI. […]
# Human TNFα is quantified in the supernatants using the Homogeneous Time Resolved Fluorescence (HTRF) technology (Cisbio 62[…]), based on FRET technology. FRET (Fluorescence Resonance Energy Transfer) is based on the transfer of energy between two fluorophores, a donor and an acceptor, when in close proximity. Molecular interactions between biomolecules can be assessed by coupling each partner with a fluorescent label and by detecting the level of energy transfer (665 nm). […]
# [4] = system: fibrosing NASH-model of rats fed a CDAA+1% cholesterol diet; assay: Chronic CDAA+1% cholesterol rat model: hepatic collagen content (hydroxyproline); type: in vivo, Wistar rats; conditions: GFT505 3 mg/kg/d, OCA 10 mg/kg/d, alone or combined; 12 weeks in diet
# Protocol: (§1) The preventive effects of Elafibranor alone, OCA alone and the combination of both were assessed in a fibrosing NASH-model of rats fed a CDAA+1% cholesterol diet. 150-175 g male Wistar rats were fed a control (CSAA) diet, CDAA+1% cholesterol diet, or CDAA+1% cholesterol diet supplemented with Elafibranor 1, 3 and 10 mg/kg/day, OCA 10 and 30 mg/kg/day or combined drugs (Elafibranor 1, 3 and 10 mg/kg/day combined to OCA 10 mg/kg/day) for 12 weeks.
# (§2) The body weight and the food intake were monitored twice per week. On the last day of treatment, rats were sacrificed after a 6 h fasting period. The liver was rapidly excised for biochemical and histological studies.
# The hepatic collagen content was determined using the appropriate QuickZyme kit (Total collagen assay, cat #QZB-totcol2). The assay is based on the detection of hydroxyproline, which is a non-proteinogenic amino acid mainly found in the triple helix of collagen. Thus, hydroxyproline in tissue hydrolysates can be used as a direct measure of the amount of collagen present in the tissue (without discrimination between procollagen, mature collagen and collagen degradation products).
# Complete hydrolysis of tissue samples in 6M HCl at 95° C. is required before dosing the hydroxyproline. The assay results in the generation of a chromogen with a maximum absorbance at 570 nm. Results are expressed as mg of collagen/g of liver.
# [5] = system: fibrosing NASH-model of rats fed a CDAA+1% cholesterol diet; assay: Chronic CDAA+1% cholesterol rat model: hepatic gene expression (qPCR); type: in vivo, Wistar rats; conditions: liver; GFT505 3 mg/kg/d, OCA 10 mg/kg/d, alone or combined; 12 weeks
# Protocol: as §1, §2
# Total RNA was isolated from rat livers using RNeasy Mini Kit (Qiagen) following manufacturer's instructions. Total RNA were reverse transcribed into cDNA using M-MLV RT (Moloney Murine Leukemia Virus Reverse Transcriptase) (Invitrogen cat #28025) in 1×RT buffer (Invitrogen), 0.5 mM DTT (Invitrogen), 0.18 mM dNTPs (Promega), 200 ng pdN6 (Amersham) and 30 U of RNase inhibitor (Promega).
# Quantitative PCR was then carried out using the CFX96 TOUCH Real-Time PCR Detection System (Biorad). Briefly, the PCR reactions were performed in 96-WP format in 25 μl of total volume containing 1 μL of reverse transcription reaction, 0.5 μL of reverse and forward primers (10 pmol each), and 12.5 μl of 2×iQ SYBR Green Supermix (BioRad), using the following primer sequences:
# Expression levels were normalized using the expression of RPLP0 gene as a housekeeping gene of reference in samples. For each gene, the standard curves were drawn by selecting the best points (at least three points) in order to have PCR reaction efficiency close to 100% and a correlation coefficient close to 1. Expression levels were determined using the standard curve equation for both the housekeeping gene and the target gene (taking into account the specific PCR efficiency of each target gene).
substance,measurement,setting,value
"1-[4-methylthiophenyl]-3-[3,5-dimethyl-4-carboxydimethylmethyloxyphenyl]prop-2-en-1-one [Elafibranor]",safety concern,[1],absence of safety concern
same,"clinical properties for NASH (liver markers, insulin sensitivity, plasma lipids, anti-inflammatory)",[2],has demonstrated beneficial properties for NASH
same,inhibition of TNFα secretion,[3],21%
same,"Hepatic collagen content, percentage over the untreated CDAA + 1% cholesterol rats",[4],45% ± 12%
same,"CCR5 mRNA level (marker of inflammation), percentage over the untreated CDAA + 1% cholesterol rats",[5],103% ± 51%
same,"TGFβ1 mRNA level, percentage over the untreated CDAA + 1% cholesterol rats",[5],94% ± 20%
same,"TIMP1 mRNA level, percentage over the untreated CDAA + 1% cholesterol rats",[5],78% ± 23%
same,"αSMA mRNA level, percentage over the untreated CDAA + 1% cholesterol rats",[5],66% ± 27%
